Experimental data: ChEMBL document CHEMBL4321825, “Discovery of a Series of 5-Azaquinazolines as Orally Efficacious IRAK4 Inhibitors Targeting MyD88L265P Mutant Diffuse Large B Cell Lymphoma” (J Med Chem, 2019)

What was measured:
[1] = target: T1, Interleukin-1 receptor-associated kinase 4 (Homo sapiens, UniProt Q9NWZ3); assay: Inhibition of IRAK4 (unknown origin) in presence of 5 mM ATP by enzymatic assay
T1 sequence (Q9NWZ3 whole entry): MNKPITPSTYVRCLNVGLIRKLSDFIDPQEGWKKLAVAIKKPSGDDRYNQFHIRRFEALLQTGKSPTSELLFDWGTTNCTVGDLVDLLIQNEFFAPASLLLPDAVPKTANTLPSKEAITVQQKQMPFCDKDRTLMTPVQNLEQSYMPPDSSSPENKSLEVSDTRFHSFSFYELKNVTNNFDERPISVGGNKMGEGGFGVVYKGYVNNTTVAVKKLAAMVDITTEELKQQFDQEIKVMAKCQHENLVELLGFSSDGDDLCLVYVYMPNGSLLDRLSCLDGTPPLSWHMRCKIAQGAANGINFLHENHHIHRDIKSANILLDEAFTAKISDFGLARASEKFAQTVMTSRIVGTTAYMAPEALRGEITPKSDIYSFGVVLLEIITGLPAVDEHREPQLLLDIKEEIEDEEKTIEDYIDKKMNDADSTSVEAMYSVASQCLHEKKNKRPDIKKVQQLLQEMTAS

[2] = target: T1, Interleukin-1 receptor-associated kinase 4; assay: Inhibition of IRAK4 (unknown origin) by cell based assay
[3] = Lipophilicity, logD of the compound at pH 7.4 by shake-flask assay; format: physicochemical; details: buffer
[4] = Intrinsic clearance in human hepatocytes assessed per million cells; format: ADME, cell-based, Hepatocyte; details: read-out: CLH
[5] = Intrinsic clearance in rat hepatocytes assessed per million cells; format: ADME, cell-based, Hepatocyte; details: read-out: CLH
[6] = Intrinsic permeability in human Caco2 cells; format: ADME, cell-based; details: Caco-2
[7] = Efflux ratio in human Caco2 cells; format: ADME, cell-based; details: Caco-2
[8] = Clearance in rat at 0.5 mg/kg, iv; format: ADME, organism-based; details: in vivo
[9] = Oral bioavailability in rat at 1 mg/kg; format: ADME, organism-based; details: in vivo

Row | IC50 [1] | IC50 [2] | logD [3] | hepatocyte CLint [4] | hepatocyte CLint [5] | Papp [6] | efflux ratio [7] | clearance [8] | bioavailability [9] | SMILES
1 | 122 nM | 420 nM | 1.4 | < 1 µL/min/1e6 cells | < 1 µL/min/1e6 cells | 4.2 ×10⁻⁶ cm/s | 19 | 19 mL/min/kg |  | CC(=O)N1CCN([C@H]2CC[C@H](Nc3ncnc4ccc(C#N)cc34)CC2)CC1
2 | 1 nM | 400 nM | 2.3 | < 1 µL/min/1e6 cells | 3.2 µL/min/1e6 cells | < 0.2 ×10⁻⁶ cm/s | 323 | 17 mL/min/kg |  | CC(=O)N1CCN([C@H]2CC[C@H](Nc3nc(Nc4cnn(C)c4)nc4ccc(C#N)cc34)CC2)CC1
3 | 38 nM | 200 nM | 2.5 | < 1 µL/min/1e6 cells | 10 µL/min/1e6 cells | 28 ×10⁻⁶ cm/s | 0.7 |  |  | COC(=O)N1CCN([C@H]2CC[C@H](Nc3ncnc4ccc(C)cc34)CC2)CC1

Further lines, the compound ahead of its results:

Row | SMILES | IC50 [1] | IC50 [2] | logD [3] | hepatocyte CLint [4] | hepatocyte CLint [5] | Papp [6] | efflux ratio [7] | clearance [8] | bioavailability [9]
4 | COC(=O)N1CCN([C@H]2CC[C@H](Nc3nc(Nc4cnn(C)c4)nc4ccc(C(C)C#N)nc34)CC2)CC1 (some centres undefined) | 6 nM | 130 nM | 2.8 |  | 26 µL/min/1e6 cells |  |  |  | 
5 | COC(=O)N1CCN([C@H]2CC[C@H](Nc3nc(Nc4cnn(C)c4)nc4ccc(C)nc34)CC2)CC1 | 9 nM | 140 nM | 2.6 | 13 µL/min/1e6 cells | 10 µL/min/1e6 cells | 7.9 ×10⁻⁶ cm/s | 0.9 |  | 
6 | Cn1cc(Nc2nc(N[C@H]3CC[C@H](N4CCOCC4)CC3)c3cc(C#N)ccc3n2)cn1 | 2 nM | 59 nM | 2.6 | < 1 µL/min/1e6 cells | 18 µL/min/1e6 cells |  | 94 | 31 mL/min/kg | 5%
7 | COC(=O)N1CCN([C@H]2CC[C@H](Nc3ncnc4ccc(C)nc34)CC2)CC1 | 279 nM | 840 nM | 2 | < 1 µL/min/1e6 cells | 5.2 µL/min/1e6 cells | 35 ×10⁻⁶ cm/s | 0.8 |  | 
